Measurements reported in patent US9867861B2, “Process for the large scale production of fruit cells and treatment of diseases with such cells” (priority 2012, dated 2018).

How the values were obtained:
[1] = test system: carrageenan induced rat paw edema; settings: resveratrol 50 mg/kg body weight before carrageenan; Gentilli et al (2001); cited from earlier work
[2] = Solubility assay of resveratrol sources in water; format: physicochemical; settings: acidified water (pH=2) as well as pH 7.0
[3] = test system: carrageenan-induced hind paw inflammation (hyperalgesia); assay: Hot plate method, inflammatory nociception in freely moving rats after carrageenan; format: in vivo, rat; settings: indomethacin 2 mg/kg, vs vehicle control
Method: The study assessed the efficacy of the RGC by two methods: • 1. Paw volume measurements • 2. Inflammatory nociception in freely moving rats Materials and Methods: Red Grape Cells (RGC) prepared according to example 1. • RGC was administered orally at dose of 400 mg/kg body weight (2 ml/40 mg) as a suspension in sterile drinking water, 2 h before carrageenan injection. • RGC Composition: […] Rats were divided into three groups of eight rats in each group. The rats in all groups were injected with 1% carrageenan (0.1 mg/paw) or sterile saline (0.9% NaCl) into the sub plantar tissue of left hind paw of each rat. • The Following Tests were Performed: • Paw Volumes Measurements • Carrageenan injected paw volumes were measured hourly just before carrageenan injection 0 and 1, 2, 4 hours after injection using caliper. • The paw dimensions were measured in two axes and paw volume was calculated. Paw edema volume in this model was an indication of the inflammation severity. • For each time point, the change in paw volume was calculated either by subtracting the baseline paw volume or as % of baseline paw volume. Hot Plate Method for Measuring Inflammatory Nociception in Freely Moving Rats The hot plate method was used to determine inflammatory nociception in freely moving rates. […]

[4] = test system: carrageenan induced rat paw edema; assay: Carrageenan induced rat paw edema, paw volume measurements; format: in vivo; settings: indomethacin 2 mg/kg 2 h before carrageenan; vs vehicle control
Excerpt: The aim of the present study was to evaluate the in vivo anti-inflammatory activity of RGC (Red Grape Cells) made according to the large scale process of the invention in an acute inflammation model in rats so as to verify the efficiency of the cells produced according to the invention. One of the experimental model most widely used to study acute inflammation in rodents is that based on the intraplantar administration of carrageenan. The study assessed the efficacy of the RGC by two methods: • 1. Paw volume measurements • 2. […] The rats in all groups were injected with 1% carrageenan (0.1 mg/paw) or sterile saline (0.9% NaCl) into the sub plantar tissue of left hind paw of each rat. • The Following Tests were Performed: • Paw Volumes Measurements • Carrageenan injected paw volumes were measured hourly just before carrageenan injection 0 and 1, 2, 4 hours after injection using caliper. • The paw dimensions were measured in two axes and paw volume was calculated. Paw edema volume in this model was an indication of the inflammation severity. • For each time point, the change in paw volume was calculated either by subtracting the baseline paw volume or as % of baseline paw volume. […]

Compound | Paw edema [1] | Dissolution of RES in water, percentage compared to dissolution in 80% methanol [2] | Hot plate latency, % from baseline [3] | Hot plate latency delta, baseline-actual time ([3]; 2 and 4 h) | Paw edema (volume %) [4]
Oc1ccc(/C=C/c2cc(O)cc(O)c2)cc1 [Synthetic-RES, trans-3,5,4′-trihydroxystilbene] | failed to reduce paw edema | 7% | – | – | –
COc1ccc2c(c1)c(CC(=O)O)c(C)n2C(=O)c1ccc(Cl)cc1 [indomethacin] | – | – | statistically significant difference at 2 and 4 h | significant decrease in the latency delta | statistically significant difference at 2 and 4 h
